The results in this text go back to patent US8178658B2 (Dow AgroSciences, LLC, priority 2008, dated 2012).

In assay [1] the test system is beet armyworm (BAW; Spodoptera exigua: Lepidoptera). Description: 96-well microtiter plate-based high throughput (HTS) diet bioassay on beet armyworm (BAW HTS). In kind it is in vivo. The following applies: BAW eggs, 12 μg test compound per well, mortality at 6 d post-treatment, mortality class. The procedure, abridged:
(§1)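 Spodoptera exigua eggs on artificial diet in 96-well plates, surface-treated with 12 μg compound in DMSO-acetone-water; dark, 29° C, mortality at 6 d, six replicates. 128-well trays: second-instar larvae on diet treated at 50 μg/cm^2, 25° C, 14:10 light-dark, six days, mortality averaged over eight wells.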

Assay [2] has the same test system. The experiment in a line: 128-well diet tray assay on beet armyworm (BAW 50). It is filed as in vivo. As to conditions: 128-well diet tray assay; 50 μg/cm^2 of test compound on diet; second instar BAW larvae; mortality class. The procedure, abridged: as §1
Setting [3] is: 96-well microtiter plate HTS diet assay.

As for `COc1ccc(-c2nc(-c3ccc(C=NOC4OC(C)C(OC)C(OC)C4OC)cc3)cs2)cc1` (stereo not drawn) [Compound 62], the “BAW HTS” value in assay [1] (96-well HTS diet bioassay) was “A (the compound was tested and at least 50 percent mortality was observed)”; in assay [1] (setting [3]), “A (the compound was tested and at least 50 percent mortality was observed)”. The “BAW 50 ug/cm2” value in assay [2] is “A (the compound was tested and at least 50 percent mortality was observed)”.

Turning to `COC1C(C)OC(ON=Cc2ccc(-c3csc(-c4ncc(C(F)(F)F)cc4Cl)n3)cc2)C(OC)C1OC` (stereo not drawn) [Compound 63], the “BAW HTS” value is “A (the compound was tested and at least 50 percent mortality was observed)” in assay [1] (96-well HTS diet bioassay); “A (the compound was tested and at least 50 percent mortality was observed)” in assay [1] (setting [3]). In addition, the “BAW 50 ug/cm2” value in assay [2] is “A (the compound was tested and at least 50 percent mortality was observed)”.

As for `COC1C(C)OC(ON=Cc2ccc(-c3csc(-c4ccc(OCC(F)(F)F)nc4)n3)cc2)C(OC)C1OC` (stereo not drawn) [Compound 64], the “BAW HTS” value in assay [1] (96-well HTS diet bioassay) is “A (the compound was tested and at least 50 percent mortality was observed)”; in assay [1] (setting [3]), “A (the compound was tested and at least 50 percent mortality was observed)”. For the same molecule, the “BAW 50 ug/cm2” value in assay [2] is “A (the compound was tested and at least 50 percent mortality was observed)”.

`COC1C(C)OC(ON=Cc2ccc(-c3csc(-c4ccc(C(F)(F)F)cc4)n3)cc2)C(OC)C1OC` (stereo not drawn) [Compound 65]: the “BAW HTS” value in assay [1] (96-well HTS diet bioassay) is “A (the compound was tested and at least 50 percent mortality was observed)”; in assay [1] (setting [3]), “A (the compound was tested and at least 50 percent mortality was observed)”. In addition, the “BAW 50 ug/cm2” value in assay [2] is “A (the compound was tested and at least 50 percent mortality was observed)”.

For `COC1C(C)OC(ON=Cc2ccc(-c3csc(-c4ccc(C(F)(F)F)nc4)n3)cc2)C(OC)C1OC` (stereo not drawn) [Compound 66], the “BAW HTS” value in assay [1] (96-well HTS diet bioassay) is “A (the compound was tested and at least 50 percent mortality was observed)”; in assay [1] (setting [3]), “A (the compound was tested and at least 50 percent mortality was observed)”. The “BAW 50 ug/cm2” value in assay [2] is “A (the compound was tested and at least 50 percent mortality was observed)”.

Turning to `COC1C(C)OC(ON=Cc2ccc(-c3ccn(-c4ccc(OC(F)(F)F)cc4)c3)cc2)C(OC)C1OC` (stereo not drawn) [Compound 67], the “BAW HTS” value is “B (either (1) the compound was tested and less than 50 percent mortality was observed or (2) the compound was not tested)” in assay [1] (96-well HTS diet bioassay); “B (either (1) the compound was tested and less than 50 percent mortality was observed or (2) the compound was not tested)” in assay [1] (setting [3]). Further, the “BAW 50 ug/cm2” value in assay [2] is “A (the compound was tested and at least 50 percent mortality was observed)”.

On to `CCOC1C(OC)C(C)OC(ON=Cc2ccc(C3=NC(c4ccc(OC(F)(F)F)cc4)CO3)cc2)C1OC` (stereo not drawn) [Compound 68], for which the “BAW HTS” value in assay [1] (96-well HTS diet bioassay) was “B (either (1) the compound was tested and less than 50 percent mortality was observed or (2) the compound was not tested)”; in assay [1] (setting [3]) it was “B (either (1) the compound was tested and less than 50 percent mortality was observed or (2) the compound was not tested)”. The “BAW 50 ug/cm2” value in assay [2] is “A (the compound was tested and at least 50 percent mortality was observed)”.

For the molecule `CO[C@@H]1[C@@H](OC)[C@H](C)O[C@@H](O/N=C/c2ccc(-n3cnc(-c4ccc(Cl)cn4)n3)cc2)[C@@H]1OC` [Compound 69], the “BAW HTS” value in assay [1] (96-well HTS diet bioassay) is “B (either (1) the compound was tested and less than 50 percent mortality was observed or (2) the compound was not tested)”; in assay [1] (setting [3]) it was “B (either (1) the compound was tested and less than 50 percent mortality was observed or (2) the compound was not tested)”. Also, in assay [2], the “BAW 50 ug/cm2” value is “B (either (1) the compound was tested and less than 50 percent mortality was observed or (2) the compound was not tested)”.

`CO[C@@H]1[C@@H](OC)[C@H](C)O[C@@H](O/N=C/c2ccc(-n3cnc(-c4ccccc4F)n3)cc2)[C@@H]1OC` [Compound 70]: the “BAW HTS” value in assay [1] (96-well HTS diet bioassay) was “A (the compound was tested and at least 50 percent mortality was observed)”; in assay [1] (setting [3]), “A (the compound was tested and at least 50 percent mortality was observed)”. Further, the “BAW 50 ug/cm2” value in assay [2] is “B (either (1) the compound was tested and less than 50 percent mortality was observed or (2) the compound was not tested)”.

As for `CO[C@@H]1[C@@H](OC)[C@H](C)O[C@@H](O/N=C/c2ccc(-n3cnc(-c4cccnc4)n3)cc2)[C@@H]1OC` [Compound 71], the “BAW HTS” value was “A (the compound was tested and at least 50 percent mortality was observed)” in assay [1] (96-well HTS diet bioassay); “A (the compound was tested and at least 50 percent mortality was observed)” in assay [1] (setting [3]). For the same molecule, the “BAW 50 ug/cm2” value in assay [2] is “B (either (1) the compound was tested and less than 50 percent mortality was observed or (2) the compound was not tested)”.

Consider `COC1C(C)OC(ON=Cc2ccc(-n3cnc(-c4ccc(C(F)(F)F)cc4)n3)cc2)C(OC)C1OC` (stereo not drawn) [Compound 72], for which the “BAW HTS” value was “A (the compound was tested and at least 50 percent mortality was observed)” in assay [1] (96-well HTS diet bioassay); “A (the compound was tested and at least 50 percent mortality was observed)” in assay [1] (setting [3]). The “BAW 50 ug/cm2” value in assay [2] is “A (the compound was tested and at least 50 percent mortality was observed)”.

Regarding `CO[C@@H]1[C@@H](OC)[C@H](C)O[C@@H](O/N=C/c2ccc(C3=NN(c4ccccc4)CC3)cc2)[C@@H]1OC` [Compound 73], the “BAW HTS” value in assay [1] (96-well HTS diet bioassay) is “B (either (1) the compound was tested and less than 50 percent mortality was observed or (2) the compound was not tested)”; in assay [1] (setting [3]) it was “B (either (1) the compound was tested and less than 50 percent mortality was observed or (2) the compound was not tested)”. Also, in assay [2], the “BAW 50 ug/cm2” value was “A (the compound was tested and at least 50 percent mortality was observed)”.

With `CCCOC1C(OC)C(C)OC(ON=Cc2ccc(-n3cnc(-c4ccc(C(F)(F)F)cc4)n3)cc2)C1OC` (stereo not drawn) [Compound 74], the “BAW HTS” value in assay [1] (96-well HTS diet bioassay) is “B (either (1) the compound was tested and less than 50 percent mortality was observed or (2) the compound was not tested)”; in assay [1] (setting [3]), “B (either (1) the compound was tested and less than 50 percent mortality was observed or (2) the compound was not tested)”. Further, the “BAW 50 ug/cm2” value in assay [2] is “A (the compound was tested and at least 50 percent mortality was observed)”.

With `COC1C(C)OC(ON=Cc2ccc(-c3cn(-c4ccc(Cl)cc4)nn3)cc2)C(OC)C1OC` (stereo not drawn) [Compound 75], the “BAW HTS” value was “A (the compound was tested and at least 50 percent mortality was observed)” in assay [1] (96-well HTS diet bioassay); “A (the compound was tested and at least 50 percent mortality was observed)” in assay [1] (setting [3]). For the same molecule, the “BAW 50 ug/cm2” value in assay [2] was “B (either (1) the compound was tested and less than 50 percent mortality was observed or (2) the compound was not tested)”.

As for `COC1C(C)OC(ON=Cc2ccc(-c3cn(-c4ccc(C)cc4)nn3)cc2)C(OC)C1OC` (stereo not drawn) [Compound 76], the “BAW HTS” value in assay [1] (96-well HTS diet bioassay) is “B (either (1) the compound was tested and less than 50 percent mortality was observed or (2) the compound was not tested)”; in assay [1] (setting [3]) it was “B (either (1) the compound was tested and less than 50 percent mortality was observed or (2) the compound was not tested)”. In assay [2], the “BAW 50 ug/cm2” value was “B (either (1) the compound was tested and less than 50 percent mortality was observed or (2) the compound was not tested)”.

For the molecule `COc1ccc(-n2cc(-c3ccc(C=NOC4OC(C)C(OC)C(OC)C4OC)cc3)nn2)cc1` (stereo not drawn) [Compound 77], the “BAW HTS” value was “B (either (1) the compound was tested and less than 50 percent mortality was observed or (2) the compound was not tested)” in assay [1] (96-well HTS diet bioassay); “B (either (1) the compound was tested and less than 50 percent mortality was observed or (2) the compound was not tested)” in assay [1] (setting [3]). In addition, the “BAW 50 ug/cm2” value in assay [2] is “B (either (1) the compound was tested and less than 50 percent mortality was observed or (2) the compound was not tested)”.

In the case of `COC1C(C)OC(ON=Cc2ccc(-c3cn(-c4ccc(C(F)(F)F)cc4)nn3)cc2)C(OC)C1OC` (stereo not drawn) [Compound 78], the “BAW HTS” value in assay [1] (96-well HTS diet bioassay) was “B (either (1) the compound was tested and less than 50 percent mortality was observed or (2) the compound was not tested)”; in assay [1] (setting [3]) it was “B (either (1) the compound was tested and less than 50 percent mortality was observed or (2) the compound was not tested)”. Further, the “BAW 50 ug/cm2” value in assay [2] was “A (the compound was tested and at least 50 percent mortality was observed)”.

With `COC1C(C)OC(ON=Cc2ccc(-c3cn(-c4ccc(OC(F)(F)F)cc4)nn3)cc2)C(OC)C1OC` (stereo not drawn) [Compound 79], the “BAW HTS” value in assay [1] (96-well HTS diet bioassay) is “B (either (1) the compound was tested and less than 50 percent mortality was observed or (2) the compound was not tested)”; in assay [1] (setting [3]), “B (either (1) the compound was tested and less than 50 percent mortality was observed or (2) the compound was not tested)”. Moreover, the “BAW 50 ug/cm2” value in assay [2] was “A (the compound was tested and at least 50 percent mortality was observed)”.

For the molecule `CO[C@@H]1[C@@H](OC)[C@H](C)O[C@@H](O/N=C/c2ccc(-c3ncn(-c4ccc(C(F)(F)F)cc4)n3)cc2)[C@@H]1OC` [Compound 80], the “BAW HTS” value was “A (the compound was tested and at least 50 percent mortality was observed)” in assay [1] (96-well HTS diet bioassay); “A (the compound was tested and at least 50 percent mortality was observed)” in assay [1] (setting [3]). The “BAW 50 ug/cm2” value in assay [2] is “A (the compound was tested and at least 50 percent mortality was observed)”.

Turning to `CCCCc1ccc(-n2cnc(-c3ccc(C=NOC4OC(C)C(OC)C(OC)C4OC)cc3)n2)cc1` (stereo not drawn) [Compound 81], the “BAW HTS” value in assay [1] (96-well HTS diet bioassay) was “A (the compound was tested and at least 50 percent mortality was observed)”; in assay [1] (setting [3]), “A (the compound was tested and at least 50 percent mortality was observed)”. Also, the “BAW 50 ug/cm2” value in assay [2] is “A (the compound was tested and at least 50 percent mortality was observed)”.
